Test results published in patent US20100317528A1, “HERBICIDE CONTAINING BENZOYLPYRAZOLE COMPOUND” (ISHIHARA SANGYO KAISHA, LTD., priority 2006, published 2010).

Experiments:
Type in all cases: in vivo
[1] = tested on: prickly sida (Sida spinosa L.); test: Test Example 1: foliar treatment, upland pot test, prickly sida; details: 31 g/ha active ingredient, observed 17th to 25th day after application; for inhibition at 31 g/ha: Sida spinosa, read-out: Growth inhibition rate (%) Prickly sida
Text: (§1) Upland field soil was put into a 1/170,000 hectare pot, and seeds of various plants were sown. When the respective plants reached predetermined leaf stage ((1) barnyardgrass (Echinochloa crus-galli L.): 1.0 to 3.0 leaf stage, (2) crabgrass (Digitaria sanguinalis L.): 1.0 to 3.0 leaf stage, (3) green foxtail (Setaria viridis L.): 1.0 to 3.0 leaf stage, (4) redroot pigweed (Amaranthus retroflexus L.): cotyledon stage to 2.0 leaf stage, (5) prickly sida (Sida spinosa L.): cotyledon stage to 1.0 leaf stage, (6) velvetleaf (Abutilon theophrasti MEDIC.): 0.1 to 1.5 leaf stage, (7) rice (Oryza sativa L.): 1.0 to 3.0 leaf stage, (8) wheat (Triticum spp.): 1.7 to 3.4 leaf stage, (9) corn (Zea mays L.): 2.0 to 3.5 leaf stage, (10) soybean (Glycine max Merr.): primary leaf stage to 0.4 leaf stage), wettable powders or emulsifiable concentrates of the compounds of the above formula (I) prepared in accordance with a conventional preparation method, were weighed so that the active ingredients became the prescribed amounts, and diluted with water in an amount corresponding to 500 liter per 1 hectare (containing 0.1 vol % of “KUSARINOH”, manufactured by NIHON NOHYAKU CO., LTD. as an agricultural spreader). The spray solutions thus prepared were applied for foliar treatment by a small sprayer.
(§2) On the 17th to 25th day after application, the state of growth of the respective plants was visually observed, and the herbicidal effect was evaluated by a growth inhibition rate (%) of 0 (equivalent to the non-treated area) to 100% (complete kill).

[2] = tested on: velvetleaf (Abutilon theophrasti MEDIC.); test: Test Example 2: soil application on the day after sowing, velvetleaf; details: 250 g/ha active ingredient, observed 19th to 28th day after application; for inhibition at 250 g/ha: Abutilon theophrasti, read-out: Growth inhibition rate (%) Velvetleaf
Text: (§3) Upland field soil was put into a 1/170,000 hectare pot, and seeds of various plants barnyardgrass (Echinochloa crus-galli L.), crabgrass (Digitaria sanquinalis L.), green foxtail (Setaria viridis L.), redroot pigweed (Amaranthus retroflexus L.), prickly sida (Sida spinosa L.), velvetleaf (Abutilon theophrasti MEDIC.), rice (Oryza sativa L.), wheat (Triticum spp.), corn (Zea mays L.) and soybean (Glycine max Merr.)) were sown. On the day after sowing, wettable powders or emulsifiable concentrates of the compounds of the above formula (I) prepared in accordance with a conventional preparation method, were weighed so that the active ingredients became the prescribed amounts, and diluted with water in an amount corresponding to 500 liter per 1 hectare, followed by soil application with a small sprayer.
(§4) On the 19th to 28th day after the application, the state of growth of the respective plants was visually observed, and the herbicidal effect was evaluated by a growth inhibition rate (%) of from 0 (equivalent to the non-treated area) to 100% (complete kill).

[3] = tested on: rice (Oryza sativa L.); test: Test Example 2: soil application on the day after sowing, rice; details: 250 g/ha active ingredient, observed 19th to 28th day after application; for inhibition at 250 g/ha: Oryza sativa, read-out: Growth inhibition rate (%) Rice
Text: as §3, §4

[4] = tested on: barnyardgrass (Echinochloa crus-galli L.); test: Test Example 2: soil application on the day after sowing, barnyardgrass; details: 250 g/ha active ingredient, observed 19th to 28th day after application; for inhibition at 250 g/ha: Echinochloa crus-galli, read-out: Growth inhibition rate (%) Barnyardgrass
Text: as §3, §4

[5] = tested on: soybean (Glycine max Merr.); test: Test Example 1: foliar treatment, upland pot test, soybean; details: 31 g/ha active ingredient, observed 17th to 25th day after application; for inhibition at 31 g/ha: Glycine max, read-out: Growth inhibition rate (%) Soybean
Text: as §1, §2

[6] = tested on: corn (Zea mays L.); test: Test Example 2: soil application on the day after sowing, corn; details: 250 g/ha active ingredient, observed 19th to 28th day after application; for inhibition at 250 g/ha: Zea mays, read-out: Growth inhibition rate (%) Corn
Text: as §3, §4

[7] = tested on: redroot pigweed (Amaranthus retroflexus L.); test: Test Example 1: foliar treatment, upland pot test, redroot pigweed; details: 31 g/ha active ingredient, observed 17th to 25th day after application; for inhibition at 31 g/ha: Amaranthus retroflexus, read-out: Growth inhibition rate (%) Redroot pigweed
Text: as §1, §2

[8] = tested on: barnyardgrass (Echinochloa crus-galli L.); test: Test Example 1: foliar treatment, upland pot test, barnyardgrass; details: 31 g/ha active ingredient, observed 17th to 25th day after application; for inhibition at 31 g/ha: Echinochloa crus-galli, read-out: Growth inhibition rate (%) Barnyardgrass
Text: as §1, §2

[9] = tested on: green foxtail (Setaria viridis L.); test: Test Example 1: foliar treatment, upland pot test, green foxtail; details: 31 g/ha active ingredient, observed 17th to 25th day after application; for inhibition at 31 g/ha: Setaria viridis, read-out: Growth inhibition rate (%) Green foxtail
Text: as §1, §2

[10] = tested on: crabgrass (Digitaria sanquinalis L.); test: Test Example 2: soil application on the day after sowing, crabgrass; details: 250 g/ha active ingredient, observed 19th to 28th day after application; for inhibition at 250 g/ha: Digitaria, read-out: Growth inhibition rate (%) Crabgrass
Text: as §3, §4

[11] = tested on: prickly sida (Sida spinosa L.); test: Test Example 2: soil application on the day after sowing, prickly sida; details: 250 g/ha active ingredient, observed 19th to 28th day after application; for inhibition at 250 g/ha: Sida spinosa, read-out: Growth inhibition rate (%) Prickly sida
Text: as §3, §4

[12] = tested on: redroot pigweed (Amaranthus retroflexus L.); test: Test Example 2: soil application on the day after sowing, redroot pigweed; details: 250 g/ha active ingredient, observed 19th to 28th day after application; for inhibition at 250 g/ha: Amaranthus retroflexus, read-out: Growth inhibition rate (%) Redroot pigweed
Text: as §3, §4

[13] = tested on: velvetleaf (Abutilon theophrasti MEDIC.); test: Test Example 1: foliar treatment, upland pot test, velvetleaf; details: 31 g/ha active ingredient, observed 17th to 25th day after application; for inhibition at 31 g/ha: Abutilon theophrasti, read-out: Growth inhibition rate (%) Velvetleaf
Text: as §1, §2

[14] = tested on: crabgrass (Digitaria sanguinalis L.); test: Test Example 1: foliar treatment, upland pot test, crabgrass; details: 31 g/ha active ingredient, observed 17th to 25th day after application; for inhibition at 31 g/ha: Digitaria sanguinalis, read-out: Growth inhibition rate (%) Crabgrass
Text: as §1, §2

[15] = tested on: wheat (Triticum spp.); test: Test Example 2: soil application on the day after sowing, wheat; details: 250 g/ha active ingredient, observed 19th to 28th day after application; for inhibition at 250 g/ha: Triticum, read-out: Growth inhibition rate (%) Wheat
Text: as §3, §4

[16] = tested on: soybean (Glycine max Merr.); test: Test Example 2: soil application on the day after sowing, soybean; details: 250 g/ha active ingredient, observed 19th to 28th day after application; for inhibition at 250 g/ha: Glycine max, read-out: Growth inhibition rate (%) Soybean
Text: as §3, §4

[17] = tested on: rice (Oryza sativa L.); test: Test Example 1: foliar treatment, upland pot test, rice; details: 31 g/ha active ingredient, observed 17th to 25th day after application; for inhibition at 31 g/ha: Oryza sativa, read-out: Growth inhibition rate (%) Rice
Text: as §1, §2

[18] = tested on: wheat (Triticum spp.); test: Test Example 1: foliar treatment, upland pot test, wheat; details: 31 g/ha active ingredient, observed 17th to 25th day after application; for inhibition at 31 g/ha: Triticum, read-out: Growth inhibition rate (%) Wheat
Text: as §1, §2

[19] = tested on: green foxtail (Setaria viridis L.); test: Test Example 2: soil application on the day after sowing, green foxtail; details: 250 g/ha active ingredient, observed 19th to 28th day after application; for inhibition at 250 g/ha: Setaria viridis, read-out: Growth inhibition rate (%) Green foxtail
Text: as §3, §4

[20] = tested on: corn (Zea mays L.); test: Test Example 1: foliar treatment, upland pot test, corn; details: 31 g/ha active ingredient, observed 17th to 25th day after application; for inhibition at 31 g/ha: Zea mays, read-out: Growth inhibition rate (%) Corn
Text: as §1, §2

| SMILES | inhibition at 31 g/ha [1] [%] | inhibition at 250 g/ha [2] [%] | inhibition at 250 g/ha [3] [%] | inhibition at 250 g/ha [4] [%] | inhibition at 31 g/ha [5] [%] | inhibition at 250 g/ha [6] [%] | inhibition at 31 g/ha [7] [%] | inhibition at 31 g/ha [8] [%] | inhibition at 31 g/ha [9] [%] | inhibition at 250 g/ha [10] [%] | inhibition at 250 g/ha [11] [%] | inhibition at 250 g/ha [12] [%] | inhibition at 31 g/ha [13] [%] | inhibition at 31 g/ha [14] [%] | inhibition at 250 g/ha [15] [%] | inhibition at 250 g/ha [16] [%] | inhibition at 31 g/ha [17] [%] | inhibition at 31 g/ha [18] [%] | inhibition at 250 g/ha [19] [%] | inhibition at 31 g/ha [20] [%] | other results |
| --- | --- | --- | --- | --- | --- | --- | --- | --- | --- | --- | --- | --- | --- | --- | --- | --- | --- | --- | --- | --- | --- |
| COC(COc1c(S(C)(=O)=O)ccc(C(=O)c2cnn(C)c2O)c1C)OC [Compound No. 1, 5-hydroxy-1-methylpyrazol-4-yl 3-(2,2-dimethoxyethoxy)-2-methyl-4-(methylsulfonyl)phenyl ketone] | 80 | 95 | 90 | 100 | 98 | 0 | 98 | 98 | 98 | 90 | 30 | 100 | 100 | 90 | 40 | 40 | 80 | 30 | 100 | 10 | – |
| Cn1ncc(C(=O)c2ccc(S(C)(=O)=O)c(Cl)c2Cl)c1O [compound 238] | 0 | 0 | 0 | 0 | 50 | 0 | 50 | 0 | 0 | 20 | 0 | 30 | 30 | 0 | 0 | 0 | 0 | 0 | 20 | 0 | – |
| Cc1c(C(=O)c2cnn(C)c2O)ccc(S(C)(=O)=O)c1OC(F)F [compound 146] | 40 | 40 | 70 | 90 | 60 | 0 | 80 | 80 | 30 | 100 | 90 | 100 | 50 | 30 | 0 | 0 | 20 | 0 | 95 | 0 | – |
| COc1c(S(C)(=O)=O)ccc(C(=O)c2cnn(C)c2O)c1C [compound 143] | 70 | 100 | 100 | 100 | 60 | 20 | 80 | 10 | 70 | 100 | 90 | 100 | 98 | 70 | 70 | 80 | 40 | 10 | 100 | 0 | – |
| CCCOC(=O)c1c(S(C)(=O)=O)ccc(C(=O)c2cnn(CC)c2O)c1Cl [compound 154] | – | – | – | – | – | – | – | – | – | – | – | – | – | – | – | – | – | – | – | – | Growth inhibition rate (%) Prickly sida [1]: 40%; Growth inhibition rate (%) Velvetleaf [2]: 40%; Growth inhibition rate (%) Rice [3]: 50%; Growth inhibition rate (%) Barnyardgrass [4]: 100%; Growth inhibition rate (%) Soybean [5]: 30%; Growth inhibition rate (%) Corn [6]: 0%; Growth inhibition rate (%) Redroot pigweed [7]: 70%; Growth inhibition rate (%) Barnyardgrass [8]: 40%; Growth inhibition rate (%) Green foxtail [9]: 60%; Growth inhibition rate (%) Crabgrass [10]: 95%; Growth inhibition rate (%) Prickly sida [11]: 60%; Growth inhibition rate (%) Redroot pigweed [12]: 100%; Growth inhibition rate (%) Velvetleaf [13]: 60%; Growth inhibition rate (%) Crabgrass [14]: 70%; Growth inhibition rate (%) Wheat [15]: 0%; Growth inhibition rate (%) Soybean [16]: 0%; Growth inhibition rate (%) Rice [17]: 50%; Growth inhibition rate (%) Wheat [18]: 0%; Growth inhibition rate (%) Green foxtail [19]: 30%; Growth inhibition rate (%) Corn [20]: 0% |
